Reference: patent publication US6410685B1, “Antistress agents and functional foods” (Calpis Co., Ltd., priority 1997, dated 2002)
Marks after values point to notes of the source that are not given here.

Tested on: Wister rats exposed to cold stress
Assay: Blood pressure by tail-cuff method in rats exposed to cold stress
Format: in vivo, rat
Conditions: Example 5, day 10, 3 mg/kg body weight of single tripeptide oral
From the text: 24 male Wister rats (body weight about 300 g) were preliminarily fed for one week. During the preliminary feeding period and the experimental period, the rats were restrictively fed with commercial diet (trade name “CE-2” manufactured by NIHON CREA CO.), and allowed to take water ad libitum.
After the preliminary feeding period, the rats were divided into three groups (eight rats each), namely, (1) the group not exposed to stress and given saline, (2) the group exposed to stress and given saline, and (3) the group exposed to stress, and given VPP and IPP. The animals of groups (2) and (3) were exposed to stress for 9 days by putting them in a cold room (4° C.) for 4 hours per one day.
On the day 10, rats of groups (1) and (2) were given 1 ml of saline, and rats of group (3) were given 1 ml of saline containing 3 mg/kg body weight each of IPP and VPP synthesized in Example 3, by forcible administration into stomach via an oral sonde. After the administration, the rats of groups (2) and (3) were exposed to cold stress for 4 hours. Two hours after finishing the stress loading, blood pressure of the rats in each group was measured by tail-cuff method using a non-warming, non-invasive rat sphygmomanometer (Type PE-300, manufactured by CSI CO.).
After the preliminary feeding period, the rats were divided into three groups (eight rats each), namely, (1) the group given saline, (2) the group given VPP, and (3) the group given IPP. The rats of groups (1) to (3) were exposed to stress for 9 days by, as in Example 4, putting them in a cold room (4° C.) for 4 hours per one day.
On the day 10, rats of group (1) were given 1 ml of saline, and rats of group (2) and (3) were given 1 ml of saline containing 3 mg/kg body weight of IPP or 3 mg/kg body weight of VPP, respectively, synthesized in Example 3, by forcible administration into stomach via an oral sonde. After the administration, the rats of groups (1) to (3) were exposed to cold stress for 4 hours, and blood pressure was measured as in Example 4.
The test was carried out in the same way as in Example 5 except that the group (1) rats were given 2 ml of saline, and the rats in group (2) were given 5 ml/kg body weight of the fermented milk obtained in Example 1, and the rats in group (3) were given 2 ml of saline containing 150 mg/kg of the purified tripeptide fraction powders obtained in Example 2, respectively. After the administration of the samples and exposure to stress, the blood pressure of each rat was measured.

Row | Substance | Diastolic Blood Pressure | Systolic Blood Pressure
1 | Ile-Pro-Pro [IPP] | 102* mmHg | 130* mmHg
2 | Val-Pro-Pro [VPP] | 101* mmHg | 131* mmHg
